Usually IC50 stands for the concentration needed to halve the response being measured. A higher IC50 goes with weaker potency.

Structures are written as SMILES. Counter-ions that a name gives are not always drawn.

T1 sequence (I3LUI7 19-1212): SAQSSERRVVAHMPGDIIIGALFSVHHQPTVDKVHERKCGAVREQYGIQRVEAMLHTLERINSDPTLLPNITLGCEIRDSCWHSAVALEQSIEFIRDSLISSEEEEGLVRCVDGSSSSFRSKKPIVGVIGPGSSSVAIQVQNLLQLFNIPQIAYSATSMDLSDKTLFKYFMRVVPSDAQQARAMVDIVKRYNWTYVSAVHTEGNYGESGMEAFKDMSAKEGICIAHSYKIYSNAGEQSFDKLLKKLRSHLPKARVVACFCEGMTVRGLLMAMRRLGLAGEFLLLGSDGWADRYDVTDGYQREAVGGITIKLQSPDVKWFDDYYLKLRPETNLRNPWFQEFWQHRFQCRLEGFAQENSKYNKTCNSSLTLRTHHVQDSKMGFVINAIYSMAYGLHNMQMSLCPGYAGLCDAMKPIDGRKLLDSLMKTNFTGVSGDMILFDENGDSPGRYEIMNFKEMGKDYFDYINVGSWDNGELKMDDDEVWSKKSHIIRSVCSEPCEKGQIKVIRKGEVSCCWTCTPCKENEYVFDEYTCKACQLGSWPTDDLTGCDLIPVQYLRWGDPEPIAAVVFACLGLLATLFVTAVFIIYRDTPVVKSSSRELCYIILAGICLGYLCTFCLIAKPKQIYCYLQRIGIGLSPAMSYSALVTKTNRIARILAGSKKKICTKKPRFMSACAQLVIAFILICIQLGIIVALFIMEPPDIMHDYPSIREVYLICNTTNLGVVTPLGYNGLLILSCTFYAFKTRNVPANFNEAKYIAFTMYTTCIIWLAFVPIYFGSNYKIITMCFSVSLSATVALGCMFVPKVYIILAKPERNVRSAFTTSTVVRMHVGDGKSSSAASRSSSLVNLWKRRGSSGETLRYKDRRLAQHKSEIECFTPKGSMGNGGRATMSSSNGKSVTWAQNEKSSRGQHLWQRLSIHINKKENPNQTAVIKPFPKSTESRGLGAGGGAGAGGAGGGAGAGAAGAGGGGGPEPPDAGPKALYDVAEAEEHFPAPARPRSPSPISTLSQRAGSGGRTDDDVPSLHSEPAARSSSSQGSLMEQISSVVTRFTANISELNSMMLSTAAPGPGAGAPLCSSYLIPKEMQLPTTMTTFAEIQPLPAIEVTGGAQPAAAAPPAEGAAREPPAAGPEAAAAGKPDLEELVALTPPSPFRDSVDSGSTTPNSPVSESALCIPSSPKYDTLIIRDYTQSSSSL

The first assay concerns the target T1, mGluR5 receptor (Sus scrofa, UniProt I3LUI7).
T1 construct: from tissue; host or cells: pig brain halves without medulla, cerebellum and pons
Put plainly: [3H]-MPEP binding in the mGluR5 receptor binding assay (pig brain homogenate). The conditions noted are these: 10 μM; pig brain homogenate; 5 nM [3H]-MPEP. In outline:
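Displacement of 5 nM [3H]-MPEP from pig brain homogenate (450 μg protein, without medulla, cerebellum and pons) in 30 mM HEPES pH 8.0, 60 min at room temperature, compounds tested at 10 μM. Filtration and scintillation counting; non-specific binding defined with 10 μM MPEP.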
With `O=C(C#Cc1cccc(Cl)c1)N1CCN(c2nccs2)CC1` [Example AAA24, 4-(Thiazol-2-yl)-1-(3-(3-chlorophenyl)propiolyl)piperazine], the “mGluR5-receptor (% inhibition 10 μM) in pigs” value amounted to 88%.

With `Cc1cccc(C#CC(=O)N2CCN(c3nccs3)CC2)c1.Cl` [Example AAA54, 4-(Thiazol-2-yl)-1-(3-(3-tolyl)propiolyl)piperazine hydrochloride], the “mGluR5-receptor (% inhibition 10 μM) in pigs” value is 97%.

For the molecule `O=C(C#Cc1ccccc1)N1CCN(c2nc(Cl)cs2)CC1` [Example AAA94, 4-(4-Chlorothiazol-2-yl)-1-(3-phenylpropiolyl)piperazine], the “mGluR5-receptor (% inhibition 10 μM) in pigs” value is reported as 91%.

For the molecule `O=C(C#Cc1ccccc1)N1CCN(c2ncc(Cl)s2)CC1` [Example AAA95, 4-(5-Chlorothiazol-2-yl)-1-(3-phenylpropiolyl)piperazine], the “mGluR5-receptor (% inhibition 10 μM) in pigs” value is given as 58%.

For the molecule `O=C(C#Cc1ccccc1)N1CCN(c2nc(-c3ccccc3)cs2)CC1` [Example AAA99, 4-(4-Phenylthiazol-2-yl)-1-(3-phenylpropiolyl)piperazine], the “mGluR5-receptor (% inhibition 10 μM) in pigs” value is on record as 87%.

Regarding `CS(=O)(=O)c1nsc(N2CCN(C(=O)C#Cc3ccccc3)CC2)n1` [Example AAA00101, 4-(3-Methansulfonyl-1,2,4-thiadiazol-5-yl)-1-(3-phenylpropiolyl)piperazine], the “mGluR5-receptor (% inhibition 10 μM) in pigs” value stood at 30%.

On to `COc1nsc(N2CCN(C(=O)C#Cc3ccccc3)CC2)n1` [Example AAA00102, 4-(3-Methoxy-1,2,4-thiadiazol-5-yl)-1-(3-phenylpropiolyl)piperazine], for which the “mGluR5-receptor (% inhibition 10 μM) in pigs” value is reported as 61%.

Consider `O=C(C#Cc1ccccc1)N1CCN(c2ncns2)CC1` [Example AAA00103, 4-(1,2,4-Thiadiazol-5-yl)-1-(3-phenylpropiolyl)piperazine], for which the “mGluR5-receptor (% inhibition 10 μM) in pigs” value is on record as 83%.

In the case of `Cc1nsc(N2CCN(C(=O)C#Cc3ccccc3)CC2)n1` [Example AAA00104, 4-(3-Methyl-1,2,4-thiadiazol-5-yl)-1-(3-phenylpropiolyl)piperazine], the “mGluR5-receptor (% inhibition 10 μM) in pigs” value turned out to be 91%.

Turning to `O=C(C#Cc1ccccc1)N1CCN(c2nc(C(F)(F)F)ns2)CC1` [Example AAA00105, 4-(3-Trifluoromethyl-1,2,4-thiadiazol-5-yl)-1-(3-phenylpropiolyl)piperazine], the “mGluR5-receptor (% inhibition 10 μM) in pigs” value was 65%.

Regarding `Cc1noc(-c2cnc(N3CCN(C(=O)C#Cc4ccccc4)CC3)s2)n1` [Example AAA00106, 4-(5-(3-Methyl-1,2,4-oxadiazol-5-yl)thiazol-2-yl)-1-(3-phenylpropiolyl)piperazine], the “mGluR5-receptor (% inhibition 10 μM) in pigs” value is listed as 68%.

Take `CC(C)(C)c1csc(N2CCN(C(=O)C#Cc3ccc(N)cc3)CC2)n1` [Example AAA00107, 4-(4-tert-Butylthiazol-2-yl)-1-(3-(4-aminophenyl)propiolyl)piperazine]: the “mGluR5-receptor (% inhibition 10 μM) in pigs” value was 30%.

On to `Cc1cccc(C#CC(=O)N2CCN(c3nccs3)CC2)c1F` [Example AAA00111, 4-(Thiazol-2-yl)-1-(3-(2-fluoro-3-methylphenyl)propiolyl)piperazine], for which the “mGluR5-receptor (% inhibition 10 μM) in pigs” value amounted to 31%.

As for `CN(C)c1cccc(C#CC(=O)N2CCN(c3nccs3)CC2)c1` [Example AAA00113, 4-(Thiazol-2-yl)-1-(3-(3-dimethylaminophenyl)propiolyl)piperazine], the “mGluR5-receptor (% inhibition 10 μM) in pigs” value is recorded as 27%.

Regarding `CN(C)C(=O)C#CC(=O)N1CCN(c2nccs2)CC1` [Example AAA00114, 4-(Thiazol-2-yl)-1-(dimethylcarbamoylpropiolyl)piperazine], the “mGluR5-receptor (% inhibition 10 μM) in pigs” value was found to be 14%.

On to `C[S+]([O-])c1cccc(C#CC(=O)N2CCN(c3nccs3)CC2)c1` (stereo not drawn) [Example AAA00115, 4-(Thiazol-2-yl)-1-(3-(3-methylsulfinylphenyl)propiolyl)piperazine], for which the “mGluR5-receptor (% inhibition 10 μM) in pigs” value was determined as 17%.

On to `CS(=O)(=O)c1cccc(C#CC(=O)N2CCN(c3nccs3)CC2)c1` [Example AAA00116, 4-(Thiazol-2-yl)-1-(3-(3-methylsulfonylphenyl)propiolyl)piperazine], for which the “mGluR5-receptor (% inhibition 10 μM) in pigs” value is recorded as 31%.

The assay is the same for the next values; noted with them: Table I.
With `O=C(C#Cc1ccccc1)N1CCN(c2nccs2)CC1` [Example 1, 1-(3-phenylpropiolyl)-4-(thiazol-2-yl)piperazine], the IC50 was 100 nM.

Still in this assay, the particulars now being: Table II; unit inferred.
As to `O=C(C#Cc1ccccc1)N1CCN(c2nccs2)CC1` [Example AAA56, 4-(Thiazol-2-yl)-1-(3-phenylpropiolyl)piperazine hydrochloride], the concentration for half-maximal inhibition (IC50) amounted to 150 nM.

Consider `Cc1cccc(C#CC(=O)N2CCN(c3nccs3)CC2C)c1` (stereo not drawn) [Example AAA68, 2-Methyl-4-(thiazol-2-yl)-1-(3-(3-tolyl)propiolyl)piperazine], for which the IC50 was 13 nM.

For `O=C(C#Cc1ccccc1)N1CCN(c2ncc(Br)s2)CC1` [Example AAA96, 4-(5-Bromothiazol-2-yl)-1-(3-phenylpropiolyl)piperazine], the IC50 amounted to 360 nM.

For `O=C(C#Cc1ccccc1)N1CCN(c2nc(Br)cs2)CC1` [Example AAA97, 4-(4-Bromothiazol-2-yl)-1-(3-phenylpropiolyl)piperazine], the IC50 was 720 nM.

The molecule `Cn1ccc2ccc(C#CC(=O)N3CCN(c4nccs4)CC3)cc21` [Example AAA00108, 4-(Thiazol-2-yl)-1-(3-(1-Methyl-indol-6-yl)propiolyl)piperazine] came in with an IC50 of 1240 nM.

With `Cc1cc(F)cc(C#CC(=O)N2CCN(c3nccs3)CC2)c1` [Example AAA00110, 4-(Thiazol-2-yl)-1-(3-(3-fluoro-5-methylphenyl)propiolyl)piperazine], the IC50 was 1390 nM.

On to `CNc1cccc(C#CC(=O)N2CCN(c3nccs3)CC2)c1` [Example AAA00112, 4-(Thiazol-2-yl)-1-(3-(3-methylaminophenyl)propiolyl)piperazine], for which the IC50 amounted to 560 nM.

For the molecule `C#Cc1cccc(C#CC(=O)N2CCN(c3nccs3)CC2)c1` [Example AAA00117, 4-(Thiazol-2-yl)-1-(3-(3-ethynylphenyl)propiolyl)piperazine], the half-inhibitory concentration (IC50) was determined as 26 nM.

With `CCc1cccc(C#CC(=O)N2CCN(c3nccs3)CC2)c1` [Example AAA00120, 4-(Thiazol-2-yl)-1-(3-(3-ethylphenyl)propiolyl)piperazine], the IC50 is 260 nM.

Regarding `O=C(C#Cc1cccc(C(F)F)c1)N1CCN(c2nccs2)CC1` [Example AAA00122, 4-(Thiazol-2-yl)-1-(3-(3-difluoromethylphenyl)propiolyl)piperazine], the 50% inhibitory concentration (IC50) amounted to 62 nM.

Another assay deals with T2, mGluR5 receptor (Rattus norvegicus, UniProt P31424).
T2 construct: Cortical neurons are prepared from postnatal rats (P2-6) under sterile conditions; endogenous in cells; host or cells: primary cortical neurons from postnatal rats (P2-6)
T2 sequence (P31424 21-1203): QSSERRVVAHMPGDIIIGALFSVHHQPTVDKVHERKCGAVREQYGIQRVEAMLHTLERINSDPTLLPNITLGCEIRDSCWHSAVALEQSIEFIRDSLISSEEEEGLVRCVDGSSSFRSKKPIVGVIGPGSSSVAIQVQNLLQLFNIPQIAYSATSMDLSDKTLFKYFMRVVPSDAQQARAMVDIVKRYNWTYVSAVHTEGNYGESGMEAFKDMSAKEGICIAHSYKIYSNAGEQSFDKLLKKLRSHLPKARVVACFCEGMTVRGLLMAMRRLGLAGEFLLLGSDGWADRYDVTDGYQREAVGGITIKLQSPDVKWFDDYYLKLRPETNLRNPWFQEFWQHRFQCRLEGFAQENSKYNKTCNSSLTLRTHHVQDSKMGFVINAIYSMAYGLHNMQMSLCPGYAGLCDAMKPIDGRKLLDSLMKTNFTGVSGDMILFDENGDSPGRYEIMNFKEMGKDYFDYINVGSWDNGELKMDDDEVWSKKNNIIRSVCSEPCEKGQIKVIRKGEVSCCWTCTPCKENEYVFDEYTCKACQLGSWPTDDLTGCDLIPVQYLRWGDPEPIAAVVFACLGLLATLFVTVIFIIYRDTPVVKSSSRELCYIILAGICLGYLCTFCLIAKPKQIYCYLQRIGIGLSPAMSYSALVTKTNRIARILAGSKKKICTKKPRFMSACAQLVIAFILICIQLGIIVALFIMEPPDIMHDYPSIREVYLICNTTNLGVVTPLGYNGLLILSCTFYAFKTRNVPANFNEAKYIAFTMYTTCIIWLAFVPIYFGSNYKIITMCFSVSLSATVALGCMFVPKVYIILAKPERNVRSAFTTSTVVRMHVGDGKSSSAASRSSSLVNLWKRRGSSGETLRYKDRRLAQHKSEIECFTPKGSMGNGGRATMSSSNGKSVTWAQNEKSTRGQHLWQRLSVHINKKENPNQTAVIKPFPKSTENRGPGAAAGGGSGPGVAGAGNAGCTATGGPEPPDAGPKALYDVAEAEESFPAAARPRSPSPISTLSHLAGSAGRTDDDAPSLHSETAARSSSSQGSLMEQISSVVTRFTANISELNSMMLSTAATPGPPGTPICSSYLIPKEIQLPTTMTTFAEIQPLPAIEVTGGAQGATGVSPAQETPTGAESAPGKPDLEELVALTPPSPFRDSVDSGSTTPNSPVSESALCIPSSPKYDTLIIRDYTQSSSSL
Kind of assay: Ca2+ influx in the mGluR5 receptor assay (rat cortical neurons, FlexStation). Format: cell-based. The note with it: Table I; 10 μM DHPG. An excerpt: II. Method Determination of the Ca^2+ Influx in the mGluR5 Receptor Assay
An agonistic and/or antagonistic action of substances can be determined with the following assay on the mGluR5 receptor of the rat species. According to this assay, the intracellular release of Ca^2+ after activation of the mGluR5 receptor is quantified with the aid of a Ca^2+-sensitive dyestuff (Fluo-4 type, Molecular Probes Europe BV, Leiden, Holland) in a FlexStation (Molecular Devices, Sunnyvale, USA).
Preparation of Cortical Neurons: […]
For the functional investigation, the cells are loaded with 2 μM of Fluo-4 and 0.01 vol. % Pluronic F127 (Molecular Probes Europe BV, Leiden, Holland) in HBSS buffer solution (Hank's buffer saline solution, Gibco Invitrogen GmbH, Karlsruhe, Germany) 30 min at 37° C. […] The Ca^2+-dependent fluorescence is measured before and after the addition of substances (λex=485 nm, λem=525 nm). Quantification is effected by measurement of the highest fluorescence intensity over time. […] After incubation 3 minutes, 10 μM of DHPG ((S)-3,5-dihydroxyphenylglycine, Tocris Biotrend Chemikalien GmbH, Cologne, Germany) are applied and the influx of Ca^2+ is determined simultaneously. mGluR5 antagonists led to a suppression of the Ca^2+ influx. […]
`O=C(C#Cc1ccccc1)N1CCN(c2nccs2)CC1` [Example 1, 1-(3-phenylpropiolyl)-4-(thiazol-2-yl)piperazine] came in with an IC50 of 190 nM.

A further assay has as its system rats. Kind of assay: Formalin test in rats. The note with it: 10.0 mg/kg i.v. The class given is in vivo, rat.
`Cc1cccc(C#CC(=O)N2CCN(c3nccs3)CC2)c1.Cl` [Example AAA54, 4-(Thiazol-2-yl)-1-(3-(3-tolyl)propiolyl)piperazine hydrochloride]: the “Reduction of nociceptive behavior of rats compared with control rats [%]” value (“Reduction of nociceptive behavior of rats … [%]” for short) came out at 72%.

Staying with this assay, now noted: 46.4 mg/kg i.p.
With `O=C(C#Cc1cccc(Cl)c1)N1CCN(c2nccs2)CC1` [Example AAA24, 4-(Thiazol-2-yl)-1-(3-(3-chlorophenyl)propiolyl)piperazine], the “Reduction of nociceptive behavior of rats … [%]” value is given as 43%.

On to `O=C(C#Cc1ccccc1)N1CCN(c2nccs2)CC1` [Example AAA56, 4-(Thiazol-2-yl)-1-(3-phenylpropiolyl)piperazine hydrochloride], for which the “Reduction of nociceptive behavior of rats … [%]” value is recorded as 85%.

The assay is the same for the next values; noted with them: 46.4 mg/kg p.o.
As to `Cc1cccc(C#CC(=O)N2CCN(c3nccs3)CC2C)c1` (stereo not drawn) [Example AAA68, 2-Methyl-4-(thiazol-2-yl)-1-(3-(3-tolyl)propiolyl)piperazine], the “Reduction of nociceptive behavior of rats … [%]” value was found to be 66%.

The record behind these values is patent publication US7300939B2, “Substituted 1-propiolylpiperazine compounds, their preparation and use” (Gruenenthal GmbH, priority 2005, dated 2007).
